In US20260207769A1, “ANTIBODY DRUG CONJUGATES” (YALE UNIVERSITY, priority 2022, published 2026):

Assays:
[1] = system: DNA damage response proteins such as γH2AX, p-ATM, and p-ATR; test: Western blot of DNA damage response proteins in WT DLD-1 cells; assay type: cell-based, human
Description: SN38 causes DNA damage via inhibition of topoisomerase I. Therefore, DNA damage was measured in both wild-type (WT) and BRCA2 deficient (BRCA2′) DLD-1 cells by induction of γH2AX after treatment with one of the following: no treatment (NT), SN38 alone (SN38), wild-type 3E10 antibody alone (cWT), 3E10-cD31N antibody alone, cWT-SN38 conjugate, or cD31N-SN38 conjugate. After treatment with 100 nM of the antibody or conjugate for 48 hours, the DLD-1 cells were collected for Western blot analysis to measure 7H2AX protein levels. […] These findings were consistent in both WT and BRCA2^−/− DLD-1 cells, but γH2AX protein levels were elevated across all groups in BRCA2^−/− DLD-1 cells.
DNA damage caused by SN38 or 3E10-SN38 conjugates in WT and BRCA2^−/− DLD-1 cells was assessed by measuring the levels of proteins involved in DNA damage response, p-ATM, p-ATR, pBRCA1, Topoisomerase 1 (TOPO-1), pChk2, pChk1, γH2AX and H2AX. DLD-1 cells were treated with 100 nM of SN38, cWT antibody, cD31N antibody, cWT-SN38 conjugate, or cD31N-SN38 conjugate and collected for Western blot after 24 (FIG. 21A) and 48 hours (FIG. 21B). No treatment (NT) was used as control.

[2] = system: DNA damage response proteins such as γH2AX, p-ATM, and p-ATR; test: Western blot of DNA damage response proteins in WT HCT116 cells; assay type: cell-based; conditions: WT HCT116, 100 nM, 24 hours
Description: (§1) DNA damage induced by SN38 or the humanized 3E10-SN38 conjugates in WT and IDH1^mut HCT116 cells was assessed by measuring the levels of proteins involved in DNA damage response, p-ATM, p-ATR, pChk2, pChk1, 7H2AX and H2AX. HCT116 cells were treated with 100 nM of SN38, V66 antibody, or V66-SN38 conjugate and collected for Western blot after 24 hours and the results are shown in FIG. 26. No treatment (NT) was used as control.

[3] = system: DNA damage response proteins such as γH2AX, p-ATM, and p-ATR; test: Western blot of DNA damage response proteins in IDH1mut HCT116 cells; assay type: cell-based; conditions: IDH1mut HCT116, 100 nM, 24 hours
Description: as §1

[4] = system: BRCA2^−/− DLD-1 colorectal adenocarcinoma cells; test: Cell viability assay in BRCA2-/- DLD-1 cells; assay type: cell-based, human; conditions: BRCA^−/− DLD-1 cells
Text: (§2) Cancer cell lines were acquired from ATCC and cultured according to well known methods in the art. Treatment with cytotoxic agents, antibodies, or ADCs refers to the addition of the cytotoxic agent, antibody or ADC (i.e., DM1 or cD31N-DM1, etc.) to the culture media for a set duration.
(§3) BRCA2 deficient (BRCA2′) cells are more sensitive to DM1 because BRCA2 participates in DNA double-stranded break (DSB) repair.

[5] = system: PEO-4 (WT) ovarian adenocarcinoma cells; test: Cell viability of PEO-4 cells; assay type: cell-based; conditions: PEO-4 (WT) cells, at 7 days
Text: as §2
The effects of longer-term treatment with SN38 and cD31N-SN38 on PEO-4 (WT) and PEO-1 (BRCA2^−/−) ovarian cancer cells were investigated.

BRCA2^−/− DLD-1 cells = test: Shorter versus longer term treatment, viability of BRCA2-/- DLD-1 cells; assay type: cell-based, human
Description: (§4) To determine whether the EC50 values would change based on the duration of the treatment with 3E10-SN38 conjugates, WT or BRCA2^−/− DLD-1 cells were treated with different concentrations of SN38, cD31N antibody, or cD31N-SN38 conjugate and cell viability, and the EC50 values were tracked over time. Shorter term treatment was defined as a 24 hour treatment followed by a change to fresh treatment-free medium. Longer term treatment was defined as treatment without a change of medium for 7 days (e.g., the treatment is not removed).

WT DLD-1 cells [6] = test: Clonogenic assay in WT DLD-1 cells; assay type: cell-based, human; conditions: WT DLD-1, after 7 days
Description: (§5) Clonogenic or colony formation assays are in vitro assays that can measure the survival or growth of cells on a single-cell level based on the ability of a single cell to grow into a colony. WT or BRCA2^−/− DLD-1 cells were plated with different concentrations of SN38, 3E10 antibody, or 3E10-SN38 conjugate added into the clonogenic assay media. After 7 days for WT cells or 10 days for BRCA2^−/− cells, colony numbers were counted to quantify DLD-1 cell survival. […] Consistent with earlier results, DLD-1 cell survival was concentration-dependent.

[7] = system: WT DLD-1 colorectal adenocarcinoma cells; test: Cell viability assay in WT DLD-1 cells; assay type: cell-based, human
Text: as §2, §3
The viability assay protocol is set forth in Example 3.

[8] = system: DNA damage response proteins; test: Western blot of DNA damage response proteins in PEO-4 cells; assay type: cell-based; conditions: 100 nM, 24 and 48 hours
Description: PEO-4 (WT) and PEO-1 (BRCA2^−/−) ovarian cancer cells were treated with 100 nM of SN38, cD31N or cD31N-SN38 and collected at 24 and 48 hours of treatment for Western blot analysis to measure specific protein markers of DNA damage response as previously described.

WT HCT116 cells = test: Clonogenic assay in WT HCT116 cells; assay type: cell-based
Description: as §5
(§6) The effects of treatment with SN38 or 3E10-SN38 conjugates on HCT116 cells were tested in clonogenic assays as previously described. WT and IDH1^mut HCT116 cells were treated with SN38, cD31N antibody, or cD31N-SN38 conjugate. Cell survival of WT (FIG. 25A) and IDH1^mut HCT116 cells (FIG. 25B) was quantified after 7 days for WT cells or 10 days for […].

WT DLD-1 cells [9] = test: Shorter versus longer term treatment, viability of WT DLD-1 cells; assay type: cell-based, human
Description: as §4

HCT116-IDH1^mut cells = test: Clonogenic assay in HCT116-IDH1mut cells; assay type: cell-based; conditions: after 10 days
Description: as §5, §6

CCc1c2c(nc3ccc(O)cc13)-c1cc3c(c(=O)n1C2)COC(=O)[C@]3(O)CC [SN38, SN-38]
protein levels of DNA damage response proteins ([1]; WT DLD-1, 100 nM, 24 and 48 hour time points): increased the protein levels of DNA damage response proteins such as γH2AX, p-ATM, and p-ATR | TOPO-1 levels ([1]; WT DLD-1, 100 nM, 24 and 48 hours): reduced TOPO-1 levels | γH2AX induction (Western blot) ([1]; WT DLD-1, 100 nM, 24 hours (Example 10)): 7H2AX was induced | γH2AX detection (Western blot) ([1]; WT DLD-1, 100 nM, 48 hours (Example 10)): 7H2AX was detected | γH2AX protein levels (Western blot) ([1]; WT DLD-1 cells, 100 nM, 48 hours (Example 5)): induced the highest levels of γH2AX expression | protein levels of DNA damage response proteins [2]: increased the protein levels of DNA damage response proteins such as γH2AX, p-ATM, and p-ATR | protein levels of DNA damage response proteins [3]: increased the protein levels of DNA damage response proteins such as γH2AX, p-ATM, and p-ATR | EC50 [4]: 0.65 nM | cell viability [5]: reduced cell viability in a concentration-dependent manner resulting in low EC50 values | cell viability (BRCA2^−/− DLD-1 cells; BRCA2-/- DLD-1, day 7 of longer term treatment): cell viability was reduced | cell viability and EC50, longer term versus shorter term treatment (BRCA2^−/− DLD-1 cells; BRCA2-/- DLD-1, 7 days without change of medium vs 24 hour treatment): lower cell viability and lower EC50 values than with shorter term treatment | cell survival (colony numbers) (WT DLD-1 cells [6]): reduced cell survival | EC50 [7]: 6.26 nM | protein expression of DNA damage response proteins [8]: protein expression of DNA damage response proteins was increased | survival fraction (WT HCT116 cells; 1 nM): 0% | cell survival (clonogenic) (WT HCT116 cells; after 7 days): low levels of cell survival in a concentration-dependent manner | cell viability (WT DLD-1 cells [9]; WT DLD-1, day 7 of longer term treatment): cell viability was reduced | cell viability and EC50, longer term versus shorter term treatment (WT DLD-1 cells [9]; WT DLD-1, 7 days without change of medium vs 24 hour treatment): lower cell viability and lower EC50 values than with shorter term treatment | cell survival (clonogenic) (HCT116-IDH1^mut cells): low levels of cell survival
